Results as given in the supplement of paper PMC10733146.

What was measured:
Experiment in all cases: viability relative to DMSO control (fraction); higher = less drug effect (more viable cells)
Details in all cases: 48 h
[1] = test system: primary ALL patient cells (S048)
Outline: (§1)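 Compounds were pre-plated at five concentrations, one well each, in 384-well plates, and primary mononuclear tumour cells were plated on them at 4 × 10^4 cells per well. The cells, fresh or cryopreserved, had been Ficoll-isolated from blood or bone marrow or taken from processed lymph node. After 48 h at 37 °C and 5% CO2 in RPMI-1640 with penicillin/streptomycin, L-glutamine and human serum, viability was read as CellTiter-Glo luminescence relative to the median of 16 inner DMSO wells.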

[2] = test system: primary ALL patient cells (S088)
Outline: as §1

[3] = test system: primary AML patient cells (S011)
Outline: as §1

[4] = test system: primary AML patient cells (S012)
Outline: as §1

[5] = test system: primary AML patient cells (S017)
Outline: as §1

[6] = test system: primary AML patient cells (S021)
Outline: as §1

[7] = test system: primary AML patient cells (S056)
Outline: as §1

[8] = test system: primary AML patient cells (S060)
Outline: as §1

[9] = test system: primary AML patient cells (S081)
Outline: as §1

[10] = test system: primary AML patient cells (S085)
Outline: as §1

[11] = test system: primary B-PLL patient cells (S016)
Outline: as §1

[12] = test system: primary BL patient cells (S005)
Outline: as §1

[13] = test system: primary CLL patient cells (S031)
Outline: as §1

[14] = test system: primary CLL patient cells (S043)
Outline: as §1

[15] = test system: primary FL patient cells (S022)
Outline: as §1

[16] = test system: primary FL patient cells (S087)
Outline: as §1

[17] = test system: primary MCL patient cells (S053)
Outline: as §1

[18] = test system: primary MCL patient cells (S063)
Outline: as §1

[19] = test system: primary MCL patient cells (S068)
Outline: as §1

Q: With `CCc1cnn2c(NCc3ccc[n+]([O-])c3)cc(N3CCCC[C@H]3CCO)nc12` [Dinaciclib] as the compound, how does the viability ([1]; 0.0016 µM) read?
A: 0.839

Q: What about the viability ([1]; 0.008 µM) of the same compound?
A: 0.127

Q: What about the viability ([1]; 0.04 µM) of the same compound?
A: 0.0333

Q: And the viability ([1]; 0.2 µM)?
A: 0.0246

Q: What about the viability ([1]; 1 µM) of the same compound?
A: 0.0268

Q: And the viability ([2]; 0.0016 µM)?
A: 0.644

Q: What about the viability ([2]; 0.008 µM) of the same compound?
A: 0.0942

Q: And the viability ([2]; 0.04 µM)?
A: 0.0343

Q: What about the viability ([2]; 0.2 µM) of the same compound?
A: 0.0308

Q: What about the viability ([2]; 1 µM) of the same compound?
A: 0.0318

Q: And the viability ([3]; 0.0016 µM)?
A: 1.23

Q: And the viability ([3]; 0.008 µM)?
A: 0.155

Q: What about the viability ([3]; 0.04 µM) of the same compound?
A: 0.0402

Q: And the viability ([3]; 0.2 µM)?
A: 0.0329

Q: And the viability ([3]; 1 µM)?
A: 0.0263

Q: And the viability ([4]; 0.0016 µM)?
A: 1.1

Q: And the viability ([4]; 0.008 µM)?
A: 0.473

Q: What about the viability ([4]; 0.04 µM) of the same compound?
A: 0.0686

Q: And the viability ([4]; 0.2 µM)?
A: 0.0607

Q: What about the viability ([4]; 1 µM) of the same compound?
A: 0.0676

Q: And the viability ([5]; 0.0016 µM)?
A: 0.994

Q: What about the viability ([5]; 0.008 µM) of the same compound?
A: 0.401

Q: And the viability ([5]; 0.04 µM)?
A: 0.0509

Q: And the viability ([5]; 0.2 µM)?
A: 0.0474

Q: What about the viability ([5]; 1 µM) of the same compound?
A: 0.0503

Q: And the viability ([6]; 0.0016 µM)?
A: 1.38

Q: What about the viability ([6]; 0.008 µM) of the same compound?
A: 0.424

Q: What about the viability ([6]; 0.04 µM) of the same compound?
A: 0.161

Q: And the viability ([6]; 0.2 µM)?
A: 0.151

Q: What about the viability ([6]; 1 µM) of the same compound?
A: 0.139

Q: And the viability ([7]; 0.0016 µM)?
A: 0.898

Q: And the viability ([7]; 0.008 µM)?
A: 0.0944

Q: What about the viability ([7]; 0.04 µM) of the same compound?
A: 0.101

Q: And the viability ([7]; 0.2 µM)?
A: 0.0868

Q: What about the viability ([7]; 1 µM) of the same compound?
A: 0.0937

Q: What about the viability ([8]; 0.0016 µM) of the same compound?
A: 1.12

Q: What about the viability ([8]; 0.008 µM) of the same compound?
A: 0.0838

Q: What about the viability ([8]; 0.04 µM) of the same compound?
A: 0.0221

Q: And the viability ([8]; 0.2 µM)?
A: 0.0219

Q: What about the viability ([8]; 1 µM) of the same compound?
A: 0.0206

Q: And the viability ([9]; 0.0016 µM)?
A: 1.02

Q: What about the viability ([9]; 0.008 µM) of the same compound?
A: 0.0549

Q: What about the viability ([9]; 0.04 µM) of the same compound?
A: 0.0232

Q: What about the viability ([9]; 0.2 µM) of the same compound?
A: 0.0223

Q: What about the viability ([9]; 1 µM) of the same compound?
A: 0.0211

Q: What about the viability ([10]; 0.0016 µM) of the same compound?
A: 1

Q: What about the viability ([10]; 0.008 µM) of the same compound?
A: 0.11

Q: What about the viability ([10]; 0.04 µM) of the same compound?
A: 0.0634

Q: What about the viability ([10]; 0.2 µM) of the same compound?
A: 0.0552

Q: And the viability ([10]; 1 µM)?
A: 0.0573

Q: And the viability ([11]; 0.0016 µM)?
A: 1.07

Q: And the viability ([11]; 0.008 µM)?
A: 0.047

Q: What about the viability ([11]; 0.04 µM) of the same compound?
A: 0.0409

Q: What about the viability ([11]; 0.2 µM) of the same compound?
A: 0.0324

Q: What about the viability ([11]; 1 µM) of the same compound?
A: 0.0324

Q: What about the viability ([12]; 0.0016 µM) of the same compound?
A: 0.866

Q: And the viability ([12]; 0.008 µM)?
A: 0.792

Q: And the viability ([12]; 0.04 µM)?
A: 0.848

Q: And the viability ([12]; 0.2 µM)?
A: 0.867

Q: And the viability ([12]; 1 µM)?
A: 1.01

Q: What about the viability ([13]; 0.0016 µM) of the same compound?
A: 0.744

Q: What about the viability ([13]; 0.008 µM) of the same compound?
A: 0.0197

Q: What about the viability ([13]; 0.04 µM) of the same compound?
A: 0.018

Q: What about the viability ([13]; 0.2 µM) of the same compound?
A: 0.0169

Q: And the viability ([13]; 1 µM)?
A: 0.0188

Q: What about the viability ([14]; 0.0016 µM) of the same compound?
A: 1.08

Q: What about the viability ([14]; 0.008 µM) of the same compound?
A: 0.0742

Q: And the viability ([14]; 0.04 µM)?
A: 0.0345

Q: What about the viability ([14]; 0.2 µM) of the same compound?
A: 0.0401

Q: What about the viability ([14]; 1 µM) of the same compound?
A: 0.0459

Q: What about the viability ([15]; 0.0016 µM) of the same compound?
A: 1.01

Q: What about the viability ([15]; 0.008 µM) of the same compound?
A: 0.227

Q: What about the viability ([15]; 0.04 µM) of the same compound?
A: 0.195

Q: What about the viability ([15]; 0.2 µM) of the same compound?
A: 0.216

Q: What about the viability ([15]; 1 µM) of the same compound?
A: 0.269

Q: What about the viability ([16]; 0.0016 µM) of the same compound?
A: 0.962

Q: What about the viability ([16]; 0.008 µM) of the same compound?
A: 0.641

Q: And the viability ([16]; 0.04 µM)?
A: 0.759

Q: What about the viability ([16]; 0.2 µM) of the same compound?
A: 0.756

Q: And the viability ([16]; 1 µM)?
A: 0.829

Q: What about the viability ([17]; 0.0016 µM) of the same compound?
A: 0.881

Q: And the viability ([17]; 0.008 µM)?
A: 0.534

Q: And the viability ([17]; 0.04 µM)?
A: 0.755

Q: What about the viability ([17]; 0.2 µM) of the same compound?
A: 0.9

Q: And the viability ([17]; 1 µM)?
A: 1.08

Q: What about the viability ([18]; 0.0016 µM) of the same compound?
A: 1

Q: What about the viability ([18]; 0.008 µM) of the same compound?
A: 0.0229

Q: What about the viability ([18]; 0.04 µM) of the same compound?
A: 0.0173

Q: What about the viability ([18]; 0.2 µM) of the same compound?
A: 0.0173

Q: What about the viability ([18]; 1 µM) of the same compound?
A: 0.0157

Q: And the viability ([19]; 0.0016 µM)?
A: 0.678

Q: What about the viability ([19]; 0.008 µM) of the same compound?
A: 0.0624

Q: And the viability ([19]; 0.04 µM)?
A: 0.0361

Q: And the viability ([19]; 0.2 µM)?
A: 0.0363

Q: What about the viability ([19]; 1 µM) of the same compound?
A: 0.0424
